According to patent US20260035367A1 (Celgene Corporation, priority 2021, published 2026):
Where two headings read alike, the source gives them in different places.

How the values were obtained:
[1] = biological target: T1, Recombinant human PKC-theta (His-tagged 362-706) (Homo sapiens, UniProt Q04759); experiment: PKC-theta inhibition assay (HTRF KinEASE kit); assay type: biochemical; settings: ATP 6.5 μM, STK substrate 525 nM
T1 construct: Recombinant human PKC-theta (His-tagged 362-706); His
Method in brief: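 IC50 values were from 4-parameter logistic fits of percent inhibition, based on acceptor/donor HTRF ratios over 10 semi-log compound doses. Kinase reactions, started with substrate plus ATP, ran 30 min at 25 °C in buffer supplemented with 10 mM MgCl2, 1 mM DTT and 0.1% Tween 20; detection lasted 2 h.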

[2] = tested on: IL-2 secretion by human effector memory T cells (TEM); experiment: Effector memory T cells IL-2 release assay (CD3/CD28 stimulation, HTRF IL-2 detection); assay type: cell-based; settings: 24 h; for IC50: Homo sapiens, T-cell
Method in brief: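 Human effector memory T cells from healthy-donor buffy coats were exposed in triplicate to ten semi-log doses of compound in 0.1% DMSO. The cells were stimulated and incubated 24 h at 37 °C. Secreted IL-2 in the supernatant was measured by HTRF.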

[3] = biological target: T2, Recombinant human PKC-delta (His-tagged 345-676) (Homo sapiens, UniProt Q05655); experiment: PKC-delta inhibition assay (HTRF KinEASE kit); assay type: biochemical; settings: ratio, PKC-theta vs PKC-delta HTRF; for PKC-theta/PKC-delta selectivity (binned): binned A to G
T2 construct: PKC-delta (His-tagged 345-676); His
T2 sequence (Q05655 345-676): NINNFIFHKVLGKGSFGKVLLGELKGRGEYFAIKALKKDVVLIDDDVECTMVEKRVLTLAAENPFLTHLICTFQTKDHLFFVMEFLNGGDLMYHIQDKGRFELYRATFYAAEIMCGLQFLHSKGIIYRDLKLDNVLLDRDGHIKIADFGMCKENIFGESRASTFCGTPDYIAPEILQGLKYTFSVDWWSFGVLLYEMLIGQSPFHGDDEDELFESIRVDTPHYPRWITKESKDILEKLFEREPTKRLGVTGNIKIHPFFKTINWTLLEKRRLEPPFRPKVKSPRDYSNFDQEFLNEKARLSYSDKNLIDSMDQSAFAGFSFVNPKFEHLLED

[4] = binned A to H, read-out: PKC-theta HTRF pIC50 (binned) (converted)
[5] = read-out: PKC-theta HTRF pIC50 (converted)
[6] = binned A to G, read-out: PKC-theta IL2 pIC50 (binned) (converted)
[7] = read-out: PKC-theta IL2 pIC50 (converted)

T1 sequence (Q04759 362-706): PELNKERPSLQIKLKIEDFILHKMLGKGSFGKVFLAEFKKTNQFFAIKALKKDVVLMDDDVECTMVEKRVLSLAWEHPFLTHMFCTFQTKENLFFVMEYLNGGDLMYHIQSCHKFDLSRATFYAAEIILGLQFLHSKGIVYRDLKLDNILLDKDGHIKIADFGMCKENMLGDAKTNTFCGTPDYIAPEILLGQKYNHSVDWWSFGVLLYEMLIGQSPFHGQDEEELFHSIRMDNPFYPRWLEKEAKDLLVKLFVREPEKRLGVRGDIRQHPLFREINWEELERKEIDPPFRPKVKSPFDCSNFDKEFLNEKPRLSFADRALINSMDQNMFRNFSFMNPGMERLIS

Compound	IC50 [1, 4] [nM]	IC50 [1, 5] [nM]	IC50 [2, 6] [nM]	IC50 [2, 7] [nM]	PKC-theta/PKC-delta selectivity [3]	PKC-theta/PKC-delta selectivity (binned) [3]	PKC-theta IL2 pIC50 [2]	PKC-theta IL2 pIC50 (binned) ([2]; binned A to G)
CC1(O)C(=O)Nc2nccc(-c3cc(Cl)cc(N4CCNCC4)c3)c21 (stereo not drawn) [Example 55]	10 to 31.6	10	316 to 1000	398	9	E (a ratio of between 5 and 10)		
CC1(C)C(=O)Nc2nccc(-c3cccc(C4(CO)CCNC4)c3)c21 (stereo not drawn) [Example 43]	3.16 to 10	7.94	316 to 1000	631	3	F (a ratio of between 1 and 5)		
CC[C@H]1CN(c2cc(C(F)(F)F)cc(-c3ccnc4c3C(C)(C)C(=O)N4)n2)CCN1 [Example 142]	1 to 3.16	2	31.6 to 100	39.8	17	D (a ratio of between 10 and 20)		
CCC1(C)C(=O)Nc2ncc(F)c(-c3cc(C(F)(F)F)cc(N4CCNC[C@H]4C)n3)c21 (stereo partly drawn) [Example 157]	3.16 to 10	7.94	100 to 316	158	20	C (a ratio of between 20 and 30)		
C[C@@H]1CNCCN1c1cc(Cl)cc(-c2c(F)cnc3c2C(C)(C)C(=O)N3)n1 [Example 155]	3.16 to 10	3.98	31.6 to 100	50.1	17	D (a ratio of between 10 and 20)		
CC1(C)C(=O)Nc2nccc(-c3cc(C(F)(F)F)cc(N4CC5CCC4CN5)n3)c21 (stereo not drawn) [Example 137]	10 to 31.6	12.6	100 to 316	251	16	D (a ratio of between 10 and 20)		
C[C@H]1NCCN(c2cc(C(F)(F)F)cc(-c3ccnc4c3C(C)(C)C(=O)N4)n2)[C@H]1C [Example 168]	0.316 to 1	0.501			14	D (a ratio of between 10 and 20)	8.1	B (a measured pIC50 of between 8.0 and 8.5)
CC1(C)C(=O)Nc2nccc(-c3cc(C(F)(F)F)cc(N4CCNC5(CC5)C4)n3)c21 [Example 84]	3.16 to 10	7.94	316 to 1000	316	14	D (a ratio of between 10 and 20)		
O=C1Cc2c(-c3cccc(N4CCNCC4)c3)ccnc2N1 [Example 4]	100 to 316	251	> 1000	5010	8	E (a ratio of between 5 and 10)		
C[C@@H](O)[C@H]1CN(c2cc(C(F)(F)F)cc(-c3ccnc4c3C(C)(C)C(=O)N4)n2)CCN1 [Example 116]	3.16 to 10	5.01	100 to 316	126	10	D (a ratio of between 10 and 20)		
C[C@H]1CN(c2cc(Cl)cc(-c3ccnc4c3C(C)(O)C(=O)N4)c2)CCN1 (stereo partly drawn) [Example 75]	3.16 to 10	7.94	100 to 316	158	11	D (a ratio of between 10 and 20)		
C[C@@]1(O)C(=O)Nc2nccc(-c3cc(C(F)(F)F)cc(N4CCNC(C(F)F)C4)n3)c21 (single isomer, unassigned) [Example 123]	10 to 31.6	20	> 1000	1580	25	C (a ratio of between 20 and 30)		
CCC1(C)C(=O)Nc2nccc(-c3cc(Cl)cc(N4CCNC[C@H]4C)n3)c21 (stereo partly drawn) [Example 146]	1 to 3.16	2.51	10 to 31.6	25.1	4	F (a ratio of between 1 and 5)		
C[C@H]1CCN(c2cc(C(F)(F)F)cc(-c3ccnc4c3C(C)(C)C(=O)N4)n2)CCN1 [Example 183]	3.16 to 10	6.31	100 to 316	126	25	C (a ratio of between 20 and 30)		
CC1(C)C(=O)Nc2nccc(-c3cc(Cl)cc(N4CCNCC4C(F)F)n3)c21 (stereo not drawn) [Example 159]	1 to 3.16	2	100 to 316	100	9	E (a ratio of between 5 and 10)		
C[C@@]1(O)C(=O)Nc2nccc(-c3cc(C(F)(F)F)cc(N4C[C@H]5CC[C@@H](C4)N5)n3)c21 (single isomer, unassigned) [Example 136]	10 to 31.6	25.1	316 to 1000	501	11	D (a ratio of between 10 and 20)		
CC[C@]1(C)C(=O)Nc2nccc(-c3cc(C(C)(F)F)cc(N4CCCNCC4)n3)c21 (single isomer, unassigned) [Example 205]	3.16 to 10	3.98	31.6 to 100	79.4	13	D (a ratio of between 10 and 20)		
CC1(C)C(=O)Nc2nccc(-c3cccc(N4CCNC(Cc5cccnc5)C4)c3)c21 (stereo not drawn) [Example 67]	31.6 to 100	50.1	> 1000	1000	3	F (a ratio of between 1 and 5)		
C[C@@H]1CN(c2cc(Cl)cc(-c3ccnc4c3C(C)(O)C(=O)N4)n2)CCN1 (stereo partly drawn) [Example 73]	3.16 to 10	6.31	100 to 316	126	11	D (a ratio of between 10 and 20)		
CC1(C)C(=O)Nc2nccc(-c3cc(C(F)(F)F)cc(N4CC5CC(C4)N5)n3)c21 [Example 150]	31.6 to 100	63.1	> 1000	1260	13	D (a ratio of between 10 and 20)		
CC[C@H]1CN(c2cc(C(F)(F)F)cc(-c3ccnc4c3C(C)(O)C(=O)N4)n2)CCN1 (stereo partly drawn) [Example 71]	1 to 3.16	1.26	31.6 to 100	31.6	12	D (a ratio of between 10 and 20)		
CCC1(C)C(=O)Nc2nccc(-c3cc(C(F)(F)F)cc(N4CCNC[C@H]4C)n3)c21 (stereo partly drawn) [Example 144]	1 to 3.16	1.58	10 to 31.6	25.1	23	C (a ratio of between 20 and 30)		
CC[C@@]1(O)C(=O)Nc2nccc(-c3cc(Cl)cc(N4CCN[C@@H](C)C4)n3)c21 (single isomer, unassigned) [Example 162]	100 to 316	316	316 to 1000	794	33	B (a ratio of between 30 and 50)		
